Laboratory results from patent US8404747B2, “Compositions and methods for modulating interaction between polypeptides” (The General Hospital Corporation, priority 2004, dated 2013).
“Also recorded” adds a separate entry of the source. Values belong to the compound of their own block, whether it stands above or below them.

What was measured:
[1] = system: aggregation of 103Q in PC12 cells; test: polyQ (103Q) aggregation in ecdyson-inducible PC12 cells; assay type: cell-based, rat
Procedure: (§1) To study the inhibitors we identified using the yeast screen in mammalian cells, we employed ecdyson-inducible rat phaeochromocytoma (PC12) cells. Compounds were tested in two clones, 14A2/5 and 14A2/6, with highest aggregation rate. We incubated undifferentiated PC12 cells with muristerone A to induce 103Q expression, and we exposed the cells to compounds at concentrations ranging from 1 to 10 μM. […] All compounds were non-toxic except C2, which was toxic at concentrations higher than 5 μM.
We tested these analogs at concentrations ranging from 0.025 μM to 5.0 μM for their effects on polyQ aggregation in PC12 cells. Among 24 analogs of C1; 28 analogs of C2; 24 analogs of C3, and 53 analogs of C4, we identified several potent inhibitors of polyQ aggregation. From our C2 focus library, we isolated compound C2-8 (B2 in Table 2), which inhibits polyQ aggregation with an IC50 value 50 nM. We also identified C2-10 (B6 in Table 2) and C2-11 (M16 (formula V(n)) in Table 5), and B7, B8 and B9 in Table 2. From our C3 focus library, we isolated compound C3-5 (M22 (formula V(t)) in Table 5) (having an IC50 value of 100 nM) and compound C3-6 (M17 (formula V(o)) in Table 5) (having an IC50 value of 5 μM). From our C4 library, we isolated compound C4-7 (A31 in Table 1), which has an IC50 value 100 nM. We also identified C4-34 (A3 in Table 1).

[2] = system: PC12 cells; test: toxicity in PC12 cells; assay type: cell-based, rat
Procedure: as §1
In the C1 library, no inhibitors of polyQ aggregation with high potency were found.

[3] = system: mutant Huntingtin transgene (htt); test: transgene (mutant htt, extended polyQ) expression in inducible PC12 cells; assay type: cell-based, rat; settings: 2.5 μM
Excerpt: The compound C9 (A33 in Table 1) has structural similarity to the histone deacetylase (HDAc) inhibitor, scriptaid (6-(1,3-Dioxo-1H,3H-benzo[de]isoquinolin-2-yl)-N-hydroxyhexanamide) (Su et al., Cancer Res. 60:3137, 2000; A5 in Table 1). We observed the most dramatic effect on expression level by C9 and scriptaid in the PC12 cell line 14A2/6 expressing the extended polyQ mutant htt(104Q). The effect of C9 on the down-regulation of polyQ expression, was similar to cystamine, a drug that has shown efficacy in a mouse model for Huntington's Disease (HD). […] 14A2/6 cells were at least 5-fold more responsive to chemical treatment than other cell lines tested.
Transcriptional dysregulation is a hallmark of HD. […] Expression of the polypeptide was under control of an inducible ecdysone receptor (EcR)-based promoter.

[4] = system: flies; test: toxicity to flies; design: species or system Drosophila; settings: in vivo
Excerpt: Scriptaid was toxic to flies.

[5] = system: htt103Q-EGFP; test: PC12 htt103Q-EGFP fluorescence assay; assay type: cell-based; settings: PC12 cells
Excerpt: A PC12 cell line was engineered to express extended polyQ under the control of an ecdysone-inducible promoter. In the assay cell line, an N-terminal fragment of htt containing an extended polyQ tract was stably expressed as a fusion with EGFP (htt103Q-EGFP), from the pIND vector. Expression of extended polyQ in these cells was controlled by addition of an ecdysone analog, in this case muristerone A. In this assay, EGFP fluorescence directly correlated with htt103Q-EGFP expression levels. This system was designed to assess the effects of specific compounds on overall levels of extended polyglutamines in cells, using a simple fluorescent-based read-out.

[6] = system: proteasomal dysfunction; test: proteasomal dysfunction in PC12 cells expressing extended polyQ; assay type: cell-based
[7] = system: polyQ-containing polypeptides; test: aggregation of polyQ-containing polypeptides, assay not specified
[8] = system: photoreceptor neurons; test: Drosophila HD photoreceptor neurodegeneration model; assay type: in vivo
Excerpt: A variety of animal models of Huntington disease have been developed. Examination of the degeneration of photoreceptor neurons facilitated by extended polyQ expression is one such model (Jackson et al., Neuron 21:633-642, 1998).
We used the photoreceptor model in Drosophila to test a variety of different compounds, including naphthylamine derivatives, for an effect on neurodegeneration. […] C9-2 is 2-(3-methoxypropyl)-1H-benzo[de]isoquinoline-1,3(2H)-dione.

[9] = system: HDAc; test: HDAc activity; assay type: biochemical
[10] = system: striatum of 11Q/111Q cells and PC12 cells; test: transcriptional activation or repression in striatum 111Q cells and PC12 cells; assay type: cell-based
Excerpt: Biochemical activity associated with C9-2 is not well understood. […] Future studies include testing the compound for anti-apoptotic activity, and transcriptional profiling using a striatum cell line derived from a double knock-out mutant htt mouse. The C9-2 analogs C9-2B (A30 in Table 1) and C9-2A (control) (A29 in Table 1) are being tested for an effect on photoreceptor neurodegeneration in the Drosophila HD model.

[11] = system: DNA; test: DNA binding activity
[12] = system: SP1 trancription factor binding motif (6XSP1) promoter; test: 6XSP1 luciferase transcription-based assay in 111Q/111Q striatum double knock-in cells; assay type: cell-based, mouse; settings: 6XSP1 luciferase reporter; CG4 among CG series, less potent than C9-4
Procedure: FIGS. 1A-1C. FIG. 1A is a bar graph showing luciferase expression in Sp1-luc/111Q striatum double knock-in cells following treatment with different compounds, as indicated. Fluorescence was measured 24 hours after addition of compound. FIG. 1B is a bar graph as described in FIG. 1A. Fluorescence was measured 48 hours after addition of compound. FIG. 1C is a bar graph as described in FIG. 1A. Fluorescence was measured 72 hours after addition of compound.
We conducted structure activity relationship (SAR) studies to optimize transcription activation. We developed a novel transcription-based assay for this purpose. A luciferase reporter gene was stably integrated into 111Q/111Q striatum double knock-in cells and constitutively expressed under control of a promoter containing six copies of the SP1 trancription factor binding motif (6XSP1). In this system, C9 was determined to have an EC200 of 7.5 μM.

[13] = system: Cos1 cells; test: toxicity for Cos1 cells; assay type: cell-based
Procedure: The inhibitory activity we observed with C1-C4 in the PC12 cell model described above was confirmed in Cos1 cells transiently transfected with a CMV promoter-based DNA construct that encodes an Htt exon I fragment of Huntington's disease protein (Htt)) having 51 consecutive glutamine residues (HD Q51). When expressed in Cos1 cells, HD 51Q polypeptides readily form aggregates. Transfected Cos1 cells were incubated with C1-C4 compounds in culture medium and lysed. The lysates were then heat-denatured in SDS and passed through a cellulose acetate membrane, which captures aggregated, but not soluble polypeptides. Polyglutamine aggregates trapped on membranes were detected by immunostaining with antibody specific to extended polyQ. Pre-incubation of cells with compounds C1, C3, and C4 decreased the amount of retained polyQ, indicating inhibitory effects on polyQ aggregation. The IC50 for compound C1 was 10 μM and the IC50 for compounds C3 and C4 was 5 μM. As C2 was toxic for Cos1 cells, its effect on aggregation was not determined.

[14] = target: T1, Recombinant HD Q51 polypeptide (Homo sapiens, UniProt P42858, INS38QQQQQQQQQQQQQQQQQQQQQQQQQQQQQQ); test: cell-free trap assay of purified polyQ; assay type: biochemical; settings: cell-free; up to 100 mM
T1 construct: made in house
Procedure: To determine whether C2 could directly interfere with polyQ aggregation, we reproduced this process in vitro and assayed the inhibitory effects of the compounds in a cell-free trap assay. Recombinant HD Q51 polypeptide, purified from bacteria, was incubated in the presence or in the absence of C2 for a time sufficient to allow aggregation. Then, upon heat-denaturation in SDS buffer, samples were filtered through a cellulose acetate membrane. Harsh denaturation conditions separated unaggregated soluble peptides, which passed through the membrane, and insoluble aggregates, which were retained on the membrane. The polyQ aggregates trapped on the membrane were subsequently immunostained and quantified.
Congo Red, which is structurally unrelated to C2-8, was used as a control.

[15] = system: p53 protein; test: levels of endogenous p53 protein in PC12 cells; assay type: cell-based, rat
Procedure: The protein levels of Htt fragments containing 103Q in PC12 cells were not affected by incubation with compounds at the concentrations tested. Furthermore, proteolytic capacity of cells treated with compound C2 appeared to be normal, since levels of a highly unstable endogenous p53 protein in PC12 cells were not changed.

T1 sequence (P42858 with tags, fused parts or gaps with the stated changes): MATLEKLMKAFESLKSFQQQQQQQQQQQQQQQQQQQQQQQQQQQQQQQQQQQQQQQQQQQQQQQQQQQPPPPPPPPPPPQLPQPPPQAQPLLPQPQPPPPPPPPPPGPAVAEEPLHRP

SMILES: O=C(CCCCCN1C(=O)c2cccc3cccc(c23)C1=O)NO [Scriptaid, 6-(1,3-Dioxo-1H,3H-benzo[de]isoquinolin-2-yl)-hexanoic acid hydroxyamide, reference compound]
- cells with aggregation ([1]; 14A2/6 cells, 2.5 μM): 100%
- cell viability ([2]; 14A2/6 cells, 2.5 μM): cell death
- expression of transgene ([3]; 14A2/6 cells): dramatic overexpression
- expression of transgene ([3]; other cell lines): modestly stimulated
- toxicity to flies [4]: toxic

SMILES: CCOC(=O)c1c(NC(=O)Cc2ccc(OC)cc2)sc(C(=O)Nc2ccccc2OC)c1C [Compound D1, 2-[2-(4-Methoxy-phenyl)-acetylamino]-5-(2-methoxy-phenylcarbamoyl)-4-methyl-thiophene-3-carboxylic acid ethyl ester]
- effect on protein aggregation [5]: facilitators of protein aggregation
- proteasomal dysfunction phenotype [6]: relieved this phenotype

SMILES: COCCCN1C(=O)c2cccc3cccc(c23)C1=O [Compound C9-2, 2-(3-Methoxy-propyl)-benzo[de]isoquinoline-1,3-dione]
- effect on aggregation [7]: does not appear to suppress aggregation; also recorded: facilitate protein-protein aggregation
- neurodegeneration of photoreceptor neurons [8]: dramatic neuroprotection
- direct inhibition of HDAc activity [9]: does not appear to inhibit
- transcriptional activation or repression [10]: no transcriptional activation or repression
- DNA binding activity [11]: nor has DNA binding activity been detected
- transcription activation [12]: did not effectively activate transcription

SMILES: CCOC(=O)c1c(NC(=O)c2ccccc2C)sc(C(=O)Nc2ccccc2OC)c1C [Compound D2, 5-(2-Methoxy-phenylcarbamoyl)-4-methyl-2-(2-methyl-benzoylamino)-thiophene-3-carboxylic acid ethyl ester]
- effect on protein aggregation [5]: facilitators of protein aggregation
- proteasomal dysfunction phenotype [6]: relieved this phenotype

- IC50 ([1]; Rattus norvegicus, PC-12, PC12 clones 14A2/5 and 14A2/6, muristerone A induced, 1 to 10 μM, read-out: IC50, aggregation of 103Q): 5 µM
- aggregation of pure polyglutamines in vitro [14]: failed to block aggregation
SMILES: O=C(Nc1ccc(Br)cc1)c1ccc(Br)c(S(=O)(=O)NC2CCCCC2)c1 [Compound C2, 4-Bromo-N-(4-bromo-phenyl)-3-cyclohexylsulfamoyl-benzamide]
- toxic concentrations ([2]; PC12 cells): higher than 5 μM
- toxicity for Cos1 cells [13]: toxic
- levels of endogenous p53 protein [15]: not changed
